# Reference: patent US20240254135A1, “POLYPHENOL COMPOUNDS” (Epirium Bio Inc., priority 2022, published 2024)
# Assay: Pharmacokinetics: quantitative determination in mice brains (LCMS)
# Type: in vivo, C57BL/6 Mice
# Settings: mice brain, 10 mg/kg PO single dose, 10% NMP vehicle; for Tmax: C57BL/6, mouse
# Protocol: C57BL/6 Mice, Age 7-9 weeks, body weight range 20-25 g were used. The mice were fasted overnight. Mice were dosed once a day for a single day at 10 mg/kg, 10 mg/kg. 6 time-points were used for whole blood. 10% NMP was used as a vehicle. 9 animals were used per treatment, with three groups of three animals each. Group 1 had time points at 15 and 60 minutes, Group 2 had time points at 30 and 120 minutes, and Group 3 had time points at 90 and 240 minutes. An Oral (PO) route was used. Plasma and brain samples were collected (brain sample collected at terminal time point). Plasma was collected through the centrifugation of whole blood at 10,000 rpm for 10 minutes at 4° C. Samples were stored at −80° C. until processing.
# 1.00 mg/mL in 100% MeOH PP vials (prepared at RT yellow light) at 2-8° C. were used as stock solution. 12.22-50000 ng/mL using 80% MeOH PP vials (prepared at RT yellow light) at 2-8° C. were used as working solution. 0.48-2000 ng/ml (prepared at RT yellow light) was used for the curve range. For Compounds 75b and 78a, 1.00 mg/mL of Compound 79 in 100% methanol Ria vials (Prepared at RT yellow light) was used as IS stock solution, and 60 ng/ml of Compound 79 in 80% methanol (Prepared at RT yellow light) was used as IS working solution. For Compound 76b, 1.00 mg/mL of Compound 44 in 100% methanol Ria vials (Prepared at RT yellow light) was used as IS stock solution, and 60 ng/ml of Compound 44 in 80% methanol (Prepared at RT yellow light) was used as IS working solution. A linear, 1/x2 fit type was used. The injection volume was 15 μL. Mobile Phase A was 0.1% Formic Acid in water at room temperature. Mobile Phase B was 100% methanol at room temperature. R0 wash solution was 80% methanol at room temperature. R^3 wash solution was IPA/MeOH/ACN/water (1:1:1:1) at room temperature. The column was Agilent Eclipse 50*2.1 mm 1.8 μm and the instrument was Shimadzu LC-40 UPLC and AB Sciez 6500+ with LCMS002.
# For Compound 75b, 100 mg of brain tissue were weighed, 400 μL of Ice cold PBS was added, and the sample was homogenated using a polytron homogenizer. Before starting the experiment the blade was cleaned with NS, Methanol, Methanol:Water (50:50) followed by NS. Using a pipette with Methanol-rinsed pipette tips, 50 μL of each sample (calibration curve sample, QC samples and blank matrix) was aliquot to labeled 12×75-mm glass tubes. Using Methanol-rinsed pipette tips, 5.0 μL of IS of conc. 60 ng (Compound 79) was added to each standard and samples except Blank. All tubes were mixed on a multi-tube vortex for approximately 30 seconds. 1 ml of Ethyl Acetate was added. All tubes were mixed on a multi-tube vortex for approximately 5 minutes then centrifuged for 10 min at 5,000 rpm, 4° C. The sample was kept in methanol containing dry ice for few seconds to freeze the Aqueous layer (flash freeze method). The upper organic layer was poured from the frozen tubes into the labeled 12×75-mm glass tubes then evaporated to dryness under nitrogen using Liquid Evaporator (30° C., −15 psi, ˜ 10 mins). 200 μl of reconstitution solution (10 mM Ammonium Formate:MeOH (40:60 v/v) was added into each tube, which was then vortexed for 30 seconds and transferred to amber glass injection vials for injection. At the terminal time points, animals were euthanized after blood sample collection. Their skulls were opened and whole brains were separated and collected in previously labeled tubes. The tubes were then immediately transferred into liquid nitrogen container for snap freezing. Later the samples were stored at −80° C.
# For Compounds 76b and 78a, 100 mg of brain tissue were weighed, 400 μL of Ice cold PBS was added, and the samples were homogenated using a polytron homogenizer. Before starting the experiment the blade was cleaned with NS, Methanol, Methanol:Water (50:50) followed by NS. […]
Compound,Tmax [h],AUC0-4 [hr*g/tissue]
"Oc1cc(O)c2c(c1)OC(c1ccc(O)c(F)c1)C(O)C2 (single isomer, unassigned) [Compound 76b, 2-(3-fluoro-4-hydroxyphenyl)chromane-3,5,7-triol]",1,5.993
"COc1cc(C2Oc3ccccc3CC2O)ccc1F (single isomer, unassigned) [Compound 75b, 2-(4-fluoro-3-methoxyphenyl)chroman-3-ol]",1,238.5399
"Oc1cc(O)c2c(c1)OC(c1ccccc1)C(O)C2 (single isomer, unassigned) [Compound 78a, 2-phenylchromane-3,5,7-triol]",1,29.135
